The values below come from patent US20030195246A1, “Seamless soft capsule preparations containing dihydrobenzofuran derivatives” (priority 2000, published 2003).

A short description of this data set: BO-653 stability test in different fats and oils (accelerated test, HPLC residue rate). Type of data set: physicochemical. Particulars: 80° C. for 17 hours. The protocol: A test was conducted on the effect of oxygen on decomposition of BO-653 (4,6-ditert-butyl-2,2-di-n-pentyl-5-hydroxy-2,3-dihydrobenzofuran) and its stability in various fats and oils. There were prepared samples consisting of 70 mg solutions of BO-653 in different fats and oils (soybean oil (product of Wako Pure Chemicals Industries, Ltd.), olive oil (product of Wako Pure Chemicals Industries, Ltd.), MCT (ODO-C: product of The Nisshin oil Mills, Ltd.), tricaprilin (product of Wako Pure Chemicals Industries, Ltd.) and linoleic acid (product of NOF Corp.)), each in a proportion of 50 wt % in a 5 cc glass vial, as well as a sample of 35 mg BO-653 in a 5 cc glass vial. An accelerated test was conducted at 80° C. for 17 hours, in a case with sealing of the head space of each sample vial after argon substitution and a case with sealing without argon substitution, and the residue rate was determined by HPLC measurement of the BO-653 content after the test.

Consider `CCCCCC1(CCCCC)Cc2c(cc(C(C)(C)C)c(O)c2C(C)(C)C)O1` [BO-653, 4,6-ditert-butyl-2,2-di-n-pentyl-5-hydroxy-2,3-dihydrobenzofuran], for which, where the note is “no argon substitution (presence of oxygen), 50 wt % in soybean oil, compared with other fats and oils”, the “stability of BO-653” value is recorded as “highest stability”. In addition, the residue rate result (no argon substitution (presence of oxygen), all of the samples) is “lower with no argon substitution than with argon substitution” and the residue rate entry (with argon substitution (absence of oxygen), any of the media, including BO-653 alone) was “virtually no reduction in residue rate”.
